Columns and labels:
Tamiami virus (TAMV) = format: cell-based
[1] = system: pseudotyped VSV expressing LASV GPC (VSVΔLASV); format: cell-based
measles virus (MV) = format: cell-based
[2] = system: vesicular stomatitis virus (VSV); format: cell-based
PICV = format: cell-based
R18-labeled PICV = format: biochemical
[3] = system: POPC LUVs or purified PICV
[4] = system: herpes simplex virus-1 (HSV-1, McIntyre strain); format: cell-based

Row | Compound | plaque reduction (Tamiami virus (TAMV)) | plaque reduction [1] | inhibition of plaque formation (measles virus (MV)) | inhibition of plaque formation [2] | effect on viral infectivity (PICV) | effect on viral infectivity (plaque number) (PICV) | peptide concentration giving complete inhibition of plaque formation (PICV (CoAn 3739)) | IC50 (PICV (CoAn 3739); 1 h) | dequenching of PICV pre-incubated at pH 5.0 prior to labeling (R18-labeled PICV; pH 5) | dequenching of R18-labeled virus (R18-labeled PICV; pH 7.4) | DPH anisotropy [3] | TMA-DPH anisotropy [3] | inhibition of plaque formation [4] | presence of pre-fusion glycoprotein spikes (cryo-EM) (Purified PICV) | size distribution of viral particles (cryo-EM) (Purified PICV)
1 | CC[C@H](C)[C@H](NC(=O)[C@H](CC(C)C)NC(=O)CNC(=O)[C@H](CC(N)=O)NC(=O)[C@@H](NC(=O)[C@@H](NC(=O)[C@H](CCCCN)NC(=O)[C@H](CCCCN)NC(=O)[C@H](Cc1ccccc1)NC(=O)[C@H](CC(C)C)NC(=O)[C@H](CC(N)=O)NC(=O)[C@@H](N)CC(C)C)[C@@H](C)O)[C@@H](C)CC)C(=O)N[C@@H](CO)C(=O)N[C@@H](CC(=O)O)C(=O)N[C@@H](CO)C(=O)N[C@@H](CC(C)C)C(=O)N[C@H](C(=O)N[C@H](C(=O)N[C@@H](CCCNC(=N)N)C(=O)O)[C@@H](C)CC)C(C)C [Peptide 1] | 45.0±5.0% | 63.8±13.0% | not significantly inhibited | not significantly inhibited | no significant antiviral activity or increase in viral infectivity was observed | no increase in plaque number was observed | approximately 20 μM | 7.05 ± 2.19 µM | did not induce significant dequenching | extensive dequenching | Concentration-dependent increases in probe anisotropy values were observed to a greater degree with Peptide 1 than with Peptide 8 | increased substantially | not significantly inhibited | Disappearance of pre-fusion glycoprotein spikes was also observed in a significant number of particles | greater shift toward larger particles
2 | PGGYALEQWAIIWAGIKAF [Peptide 8] |  |  |  |  |  |  |  |  |  |  | purely incidental alterations in acyl chain packing |  |  |  | 

Source: US8999925B2 (priority 2013, dated 2015)
